Here are results for 63 molecules from ChEMBL document CHEMBL1151292, “Antineoplastic activity and cytotoxicity of flavones, isoflavones, and flavanones” (1979).

One test relates to KB. The test is described as follows: Cytotoxicity against human KB cells. The test is classed as functional. As to conditions: read-out: ED50 (the source's name).
The test system of the next test is L1210. Put plainly: In vivo antitumor activity against mouse L1210 cells. The class given is functional, organism-based.

Converted amounts (≈) assume the structure as drawn. The source made the active and inactive calls. No rule for the calls is given here.

For the molecule `COc1ccc(-c2cc(=O)c3cc(OC)c(OC)cc3o2)cc1O`, in the test on KB, the EC50 was 2 µg/mL (≈ 6.09 µM).
As for `COc1ccc(-c2oc3cc(O)cc(O)c3c(=O)c2OC)cc1OC`, the result in the test on L1210 was inactive.
On to `COc1cc(O)c2c(=O)c(OC)c(-c3ccc(O)c(OC)c3)oc2c1`, for which, in the test on L1210, the result was inactive.
On the same count and under the same terms, with `COc1ccc(-c2coc3cc(O)cc(O)c3c2=O)cc1` the entry was “inactive”.
On the same count and under the same terms, with `COc1cc(-c2cc(=O)c3ccc(O)c([C@@H]4O[C@H](CO)[C@@H](O)[C@H](O)[C@H]4O)c3o2)ccc1O` the entry was “inactive”.
`COc1cc(OC)c(-c2cc(=O)c3c(O)cc(O)cc3o2)c(OC)c1`: in the test on L1210, the outcome was inactive.
In the case of `O=c1c(O)c(-c2cc(O)c(O)c(O)c2)oc2cc(O)ccc12` [ROBINETIN], the EC50 with KB is 25 µg/mL (≈ 82.7 µM).
On the same count and under the same terms, with `COC1(c2ccccc2)Oc2ccccc2C(=O)C1(O)O` (stereo not drawn) the figure was 19 µg/mL (≈ 66.4 µM).
Same read-out and setting: with `Cc1ccc(-c2oc3ccc(Cl)cc3c(=O)c2Cl)c(C(C)C)c1` the figure was 22 µg/mL (≈ 63.4 µM); with `COc1ccc2c(c1)OC(OC)(c1ccccc1)C(O)(O)C2=O` (stereo not drawn), 20 µg/mL (≈ 63.2 µM).
The same measure, in the same setting: with `O=c1cc(-c2ccccc2)oc2cc(F)ccc12` [7-FLUOROFLAVONE] the figure was 22 µg/mL (≈ 91.6 µM).
Regarding `COc1ccc(-c2cc(=O)c3c(O)cc(O)cc3o2)cc1OC`, the outcome in the test with L1210 was inactive.
For the molecule `O=C1C(=O)C(c2ccccc2)Oc2ccccc21` (stereo not drawn), the result in the test with L1210 was inactive.
For the molecule `COc1cc(-c2cc(=O)c3c(O)cc(C)cc3o2)cc(OC)c1OC`, the result in the test on L1210 was inactive.
With `COc1cc(O)c2c(=O)cc(-c3ccc(OC)c(O)c3)oc2c1`, in the test on KB, the EC50 was 19 µg/mL (≈ 60.5 µM).
Turning to `COc1ccc(C2(OC)Oc3cc(OC)ccc3C(=O)C2(O)O)cc1` (stereo not drawn), the EC50 with KB amounted to 2.8 µg/mL (≈ 8.08 µM).
For `C[C@@H]1O[C@@H](OC[C@H]2O[C@@H](Oc3c(-c4ccc(O)c(O)c4)oc4c(O)cc(O)cc4c3=O)[C@H](O)[C@@H](O)[C@@H]2O)[C@H](O)[C@H](O)[C@H]1O`, the outcome in the test with L1210 was inactive.
In the case of `COc1cc2c(=O)cc(-c3ccc(OC)c(OC)c3)oc2cc1O`, in the test on KB, the EC50 turned out to be 45 µg/mL (≈ 137 µM).
Regarding `COc1ccc(-c2cc(=O)c3c(C)cc(O)cc3o2)cc1`, in the test with L1210, the result was inactive.
The same measure, in the same setting: with `COc1cc(OC)c2c(=O)c(O)c(-c3ccc(OC)c(OC)c3)oc2c1` the entry was “inactive”.
In the case of `C[C@@H]1O[C@@H](OC[C@H]2O[C@@H](Oc3c(-c4ccc(O)c(O)c4)oc4cc(O)cc(O)c4c3=O)[C@H](O)[C@@H](O)[C@@H]2O)[C@H](O)[C@H](O)[C@H]1O.Cl`, the EC50 with KB was above 100 µg/mL.
Still for that read-out and setting: with `O=c1c(Cl)c(-c2ccccc2)oc2ccc(Cl)cc12` the figure was above 100 µg/mL; with `O=c1cc(-c2ccc(O)c(O)c2)oc2c([C@@H]3O[C@H](CO)[C@@H](O)[C@H](O)[C@H]3O)c(O)cc(O)c12` [ORIENTIN], 25 µg/mL (≈ 55.8 µM).
For `COc1ccc(-c2oc3cc(CC=C(C)C)cc(O)c3c(=O)c2OC)cc1OC`, the result in the test on L1210 was inactive.
Take `COc1ccc(-c2oc3cc(O)cc(O)c3c(=O)c2O)cc1` [KAEMPFERIDE]: the EC50 in the test with KB was determined as 20 µg/mL (≈ 66.6 µM).
As for `COc1ccc(-c2cc(=O)c3ccc(O)cc3o2)cc1`, the outcome in the test with L1210 was inactive.
The same measure, in the same setting: with `COc1ccc(-c2cc(=O)c3c(O)cc(C)cc3o2)cc1OC` the entry was “inactive”; with `COc1ccc(-c2oc3ccccc3c(=O)c2O)cc1`, “inactive”.
Regarding `O=c1c(Cl)c(-c2ccccc2O)oc2ccccc12`, the EC50 in the test with KB was 22 µg/mL (≈ 80.7 µM).
As for `COc1cc(C2Oc3cc(OC)c(OC)c(O)c3C(=O)C2OC)ccc1O` (stereo not drawn), the outcome with L1210 was inactive.
On the same count and under the same terms, with `COc1ccc(-c2oc3ccccc3c(=O)c2O)cc1OC` the entry was “inactive”.
For the molecule `O=c1c(O)c(-c2ccc(O)c(O)c2)oc2cc(O[C@@H]3O[C@H](CO)[C@@H](O)[C@H](O)[C@H]3O)cc(O)c12` [QUERCIMERITRIN], in the test with KB, the EC50 came out at 28 µg/mL (≈ 60.3 µM).
With `COC1(O)C(=O)c2ccccc2OC1(OC)c1ccc(Cl)cc1` (stereo not drawn), in the test on L1210, the result was inactive.
On to `CC(=O)c1c(O)cc(O)cc1-c1cc(=O)c2c(O)ccc(C(C)=O)c2o1`, for which the result in the test with L1210 was inactive.
Turning to `Cc1ccc2oc(-c3ccccc3)c(Cl)c(=O)c2c1`, in the test with KB, the EC50 is above 100 µg/mL.
Take `O=c1cc(-c2ccccc2)oc2c(O)c(O)cc(O)c12`: in the test on L1210, the outcome was inactive.
On the same count and under the same terms, with `COc1ccc(-c2cc(=O)c3c(C)cc(O)cc3o2)cc1OC` the entry was “inactive”; with `O=c1c(-c2ccccc2)coc2ccccc12`, “inactive”.
For `C=CCOc1ccc(-c2cc(=O)c3c(OC)c(OC)c(OC)c(OC)c3o2)cc1`, the EC50 in the test on KB was determined as 26 µg/mL (≈ 65.3 µM).
Take `COc1cc(O)c2c(c1)OC(c1ccc(O)cc1)CC2=O` (stereo not drawn): in the test with KB, the EC50 was found to be 13 µg/mL (≈ 45.4 µM).
For `COc1ccc(-c2cc(=O)c3ccc(O)cc3o2)cc1OC`, the outcome with L1210 was inactive.
The same measure, in the same setting: with `COc1cc(-c2cc(=O)c3c(C)cc(O)cc3o2)cc(OC)c1OC` the entry was “inactive”.
As to `COc1c(OC)c(OC)c2c(=O)cc(-c3ccc(OC(C)C)cc3)oc2c1OC`, the EC50 with KB is above 100 µg/mL.
With `O=c1c(O)c(-c2ccccc2)oc2cc(O)cc(O)c12` [GALANGIN], the EC50 in the test on KB is above 100 µg/mL.
In the case of `CC(=O)Oc1cc(OC(C)=O)c2c(=O)c(OC(C)=O)c(-c3ccc(OC(C)=O)c(OC(C)=O)c3)oc2c1`, in the test on L1210, the outcome was inactive.
Still for that read-out and setting: with `COc1cc(-c2cc(=O)c3c(O)cc(O)cc3o2)cc(OC)c1OC` the entry was “inactive”.
As to `COc1c(-c2ccc(O)c(O)c2)oc2cc(O)cc(O)c2c1=O` [3-O-METHYLQUERCETIN], the EC50 in the test with KB came out at 17 µg/mL (≈ 53.8 µM).
With `COc1cc2oc(-c3ccc(O)cc3)c(O[C@@H]3O[C@@H](C)[C@H](O)[C@@H](O)[C@H]3O)c(=O)c2c(O)c1OC`, the outcome in the test with L1210 was inactive.
For `CS(=O)(=O)Oc1cccc(-c2cc(=O)c3ccccc3o2)c1`, the EC50 in the test on KB was above 100 µg/mL.
The same measure, in the same setting: with `COc1cc(OC)c2c(=O)c(OC)c(-c3ccc(OC)c(OC)c3)oc2c1` the figure was 25 µg/mL (≈ 67.1 µM); with `COc1cc2c(=O)cc(-c3ccc(O)c(O)c3)oc2cc1O`, 18 µg/mL (≈ 59.9 µM).
Still for that read-out and setting: with `C[C@@H]1O[C@@H](OC[C@H]2O[C@@H](Oc3c(-c4ccc(O)c(O)c4)oc4cc(O)cc(O)c4c3=O)[C@H](O)[C@@H](O)[C@@H]2O)[C@H](O)[C@H](O)[C@H]1O` [RUTIN] the figure was 26 µg/mL (≈ 42.6 µM).
As to `CC(=O)Oc1ccc2c(=O)c(-c3ccccc3)c(C)oc2c1`, the outcome with L1210 was inactive.
As for `COC1(c2ccccc2)Oc2ccccc2C(=O)C1(O)C[N+](=O)[O-]` (stereo not drawn), the result in the test on L1210 was inactive.
Same read-out and setting: with `COc1ccc2c(c1)OC(OC)(c1ccc(OC)c(OC)c1)C(O)(OC)C2=O` (stereo not drawn) the entry was “inactive”.
Regarding `C[C@@H]1O[C@@H](OC[C@H]2O[C@@H](Oc3ccc4c(=O)c(-c5ccc6c(c5)OCO6)coc4c3)[C@H](O)[C@@H](O)[C@@H]2O)[C@H](O)[C@@H](O)[C@H]1O`, the result with L1210 was inactive.
In the case of `COc1cc(-c2cc(=O)c3ccc(O)cc3o2)cc(OC)c1OC`, in the test on L1210, the result was inactive.
Same read-out and setting: with `Cc1ccc(-c2oc3ccccc3c(=O)c2O)cc1` the entry was “inactive”; with `O=c1cc(-c2ccc3c(c2)OCO3)oc2ccccc12`, “inactive”.
Same read-out and setting: with `COc1ccc(-c2cc(=O)c3c(O)cccc3o2)cc1` the entry was “inactive”.
On to `COc1ccc(-c2coc3cc(O)ccc3c2=O)cc1`, for which the result in the test on L1210 was inactive.
On the same count and under the same terms, with `COc1ccc(C2(OC)Oc3ccccc3C(=O)C2(O)OC)cc1OC` (stereo not drawn) the entry was “inactive”.
The same measure, in the same setting: with `COc1ccc2c(=O)c(O)c(-c3ccc(OC)c(OC)c3)oc2c1` the entry was “inactive”.
